Patent publication US20260248731A1, “NON-VIRAL DELIVERY OF SMALL MOLECULE THERAPEUTICS” (BATTELLE MEMORIAL INSTITUTE, priority 2022, published 2026)

Experiments:
[1] = test system: macrophage-differentiated THP-1 cells; conditions: background statement; cited from earlier work
[2] = test system: macrophage-differentiated THP-1 cells; conditions: background statement; cited from earlier work; remark: listed apart in the source
murine cancer models = conditions: systemic administration; cited from earlier work
RAW264.7 cells = assay: Cytokine release from RAW264.7 cells, multiplex cytometric bead array; format: cell-based, murine; conditions: 24 hours after treatment
Procedure: Talabostat mesylate (MedChemExpress; TLBST) was reconstituted to 10 mg/mL in deionized water and stored frozen. Prior to use, TLBST was thawed, incubated at 37° C. for 20 mins, and sonicated for 10 minutes. TLBST was serially diluted in pH 7.4, 40 mM Tris, 10 mM MgCl2 buffer to 5 mg/mL and 2.5 mg/mL. Free talabostat controls were prepared in triplicate by diluting and serially diluting the 10, 5, and 2.5 mg/mL TLBST stock in pH 7.4, 40 mM Tris-HCl, 10 mM MgCl2 buffer to generate free TLBST at 1.25, 0.625, and 0.3125 mg/mL. […]
RAW264.7 cells were seeded at 100,000 cells per well of a 96-well plate. […] Twenty-four hours following stimulation, cell culture supernatants were harvested and stored frozen until quantification of lactate dehydrogenase (LDH) by colorimetric enzymatic activity assay, and interleukin 1β (IL-1β), interleukin 18 (IL-18), and interferon β (IFNβ) by multiplex cytometric bead array assay. Percentage LDH release was calculated relative to the maximum LDH released from a lysed cells control. […] MTT signal derived from stimulated cells was quantified by colorimetric enzymatic activity assay. Percentage viability was calculated relative to the MTT signal measured in an untreated cells control. […]

Talabostat mesylate [Free TLBST]
IL-1β release [1]: exhibit both cytotoxicity and IL-1β release | cytotoxicity [2]: exhibit both cytotoxicity and IL-1β release | protection in murine cancer models (murine cancer models): potent T and NK cell-dependent protection | IFNβ in the supernatant (RAW264.7 cells): but not free TLBST is associated with IFNβ secretion
